From patent US11634424B2 (priority 2019, dated 2023) come the findings set out here.

Each structure is given as a SMILES string. “And” between values parts separate entries of the source, which are not always exact repeats. Equal values may be shown once. Read-outs that look alike come from different tables or passages of the source.

One data set concerns the target Chk1 (Homo sapiens (Human), UniProt O14757). Nature of the data set: biochemical. The class given is biochemical. The settings on record: read-out: Chk1 inhibition IC50. The method, then:
The compounds of the present disclosure used in the experiments were self-prepared, and their chemical names and structural formulas were shown in the preparation embodiments of each compound. The determination mixture containing embodiment compounds of the present disclosure and Chk1 and Chk2 kinases were incubated in a microtiter plate, and CHK1 inhibitor activity of compounds were tested by monitoring the phosphorylation of Chk1 and Chk2 kinases on a synthetic peptide substrate with a specific amino acid sequence ([…], SEQ ID NO: 1). The test was carried out on the KinaseProfiler™ protein kinase activity detection platform of Eurofins, and the experimental results were provided by the company. The procedure was as follows: Chk1 and Chk2 kinases were diluted with 20 mM MOPS (morpholinpropane sulfonic acid), 1 mM EDTA (ethylenediaminetetraacetic acid), 0.04% Brij-35, 5% glycerol, 0.1% 2-mercaptoethanol, 1 mg/mL BSA (bovine serum albumin) and added to the reaction system, and the reaction system contained the embodiment compounds, 8 mM MOPS pH 7.0, 0.2 mM EDTA, […] polypeptide substrate ([…], SEQ ID NO: 1), 10 mM magnesium acetate and a certain concentration of [γ-33P]-ATP (the strength was about 500 cpm/pmol). A mixture solution of Mg^2′ and ATP (adenosine triphosphate) was added to initiate the reaction and the reaction solution was incubated at room temperature for 40 min. 0.5% Phosphate buffer was added to terminate the reaction. 10 μL of the reaction solution was filtered four times on a continuous filter P30, washed three times with […], and once with methanol, each wash for 4 min. The value was read with scintillation counting method after drying.

Another data set concerns the target Chk2 (Homo sapiens (Human), UniProt O96017). Nature of the data set: Chk2 kinase activity test, Eurofins KinaseProfiler, [γ-33P]-ATP peptide substrate phosphorylation. It is filed as biochemical. The method, then: The compounds of the present disclosure used in the experiments were self-prepared, and their chemical names and structural formulas were shown in the preparation embodiments of each compound. […] The test was carried out on the KinaseProfiler™ protein kinase activity detection platform of Eurofins, and the experimental results were provided by the company. […] A mixture solution of Mg^2′ and ATP (adenosine triphosphate) was added to initiate the reaction and the reaction solution was incubated at room temperature for 40 min. 0.5% Phosphate buffer was added to terminate the reaction. […] The value was read with scintillation counting method after drying.

A short description of data set [1]: Pharmacokinetic evaluation of compounds in mice. The conditions noted are these: mouse, plasma, female C57BL/6 mice; for bioavailability: oral, gavage 10 mg/kg vs intravenous 1 mg/kg, read-out: F (bioavailability); for AUC(0-t): 0 to 24 h; for Cmax: route not given (gavage group 10 mg/kg); for half-life: read-out: Intravenous injection T1/2 (converted). It is filed as in vivo.

The test system of data set [2] is human ovarian cancer OVCAR-3 subcutaneous xenograft tumor. Nature of the data set: In vivo pharmacodynamics, human ovarian cancer OVCAR-3 subcutaneous xenograft tumor BALB/c nude mouse model. Set-up: species or system BALB/c nude mice. The conditions noted are these: oral twice a day, Compound 18 75 mg/kg, Compound 19 25 mg/kg; for Tumor volume (D 21): D 21, mean ± SEM, n = 6. How it is done: Experimental purpose: To evaluate the in vivo efficacy of the compounds of the present disclosure in the human ovarian cancer OVCAR-3 subcutaneous xenograft tumor BALB/c nude mouse model.
Experimental animal: Female BALB/c nude mice, 6-8 weeks old, weighing 18-22 grams; supplier: Beijing Vital River Laboratory Animal Technology Co., Ltd. Experimental methods and steps:
Human ovarian cancer OVCAR-3 (ATCC-HTB-161) cells were cultured in vitro in monolayer, and the culture conditions were RPMI1640 culture medium with 20% fetal bovine serum, 0.01 mg/mL bovine insulin, and 1% double antibody, and the cells were incubated at 37° C., 5% CO2 incubator. Routine digestion with trypsin was performed twice a week for passage. When the cell saturation was 80%-90% and the number reached the requirement, the cells were harvested, counted and inoculated.
0.1 mL (10×10^6 cells) of OVCAR-3 cells were subcutaneously inoculated into the right back of each mouse, and the mice were administrated in groups when the average tumor volume reached 122 mm^3.
Compound 18, compound 19 were formulated as 2 mg/mL clear solutions with 10% dimethyl sulfoxide-20% polyethylene glycol 400-5% Tween 80-65% water.
Tumor diameters were measured with vernier calipers twice a week. The calculation formula of tumor volume was. V=0.5a×b^2, where a and b represented the long and short diameters of the tumor, respectively.
The antitumor efficacy of the compounds was evaluated by TGI (%). TGI (%), reflecting tumor growth inhibition rate. TGI (%/c)=[(1-(average tumor volume at the end of administration of a certain treatment group-average tumor volume at the beginning of administration of this treatment group)/(average tumor volume at the end of treatment in the solvent control group-average tumor volume at the beginning of administration of this solvent control group)]×100%. The relative tumor volume (RTV) was calculated according to the results of tumor measurement, and the calculation formula was RTV=Vt/V0, where V0 was measured at the time of group administration (i.e., D0), and Vt was the average tumor volume at the time of one measurement.
Statistical analysis was performed using SPSS software based on RTV data at the end of the test. The Ttest was used for the comparison between two groups, and the one-way ANOVA was used for the comparison between three or more groups. If the variance was homogeneous (no significant difference in F value), Tukey's method was used for analysis; if the variance was not homogeneous (significant difference in F value), Games-Howell method was used for test. p<0.05 was considered that a significant difference was performed.
On the technique in general: In xenograft studies the graft and the host belong to different species.

Where [3] appears, read: po, gavage 10 mg/kg, read-out: Oral AUC0-last.
The mark [4] stands for this setting: intravenous injection 1 mg/kg, read-out: Intravenous Injection AUC0-last.

Sequence of Chk1 (O14757 whole entry): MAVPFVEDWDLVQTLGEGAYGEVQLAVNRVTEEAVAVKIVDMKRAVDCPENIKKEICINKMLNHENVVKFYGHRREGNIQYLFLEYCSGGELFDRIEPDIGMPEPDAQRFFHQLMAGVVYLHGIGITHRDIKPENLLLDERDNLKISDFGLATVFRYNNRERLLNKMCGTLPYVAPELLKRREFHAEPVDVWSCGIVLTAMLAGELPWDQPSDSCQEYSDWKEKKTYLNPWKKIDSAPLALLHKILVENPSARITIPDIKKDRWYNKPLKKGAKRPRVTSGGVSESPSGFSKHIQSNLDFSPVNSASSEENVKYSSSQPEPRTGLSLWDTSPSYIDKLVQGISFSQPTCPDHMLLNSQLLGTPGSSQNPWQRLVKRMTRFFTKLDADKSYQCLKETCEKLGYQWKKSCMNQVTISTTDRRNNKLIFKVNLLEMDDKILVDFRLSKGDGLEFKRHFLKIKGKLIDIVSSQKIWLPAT
Sequence of Chk2 (O96017 whole entry): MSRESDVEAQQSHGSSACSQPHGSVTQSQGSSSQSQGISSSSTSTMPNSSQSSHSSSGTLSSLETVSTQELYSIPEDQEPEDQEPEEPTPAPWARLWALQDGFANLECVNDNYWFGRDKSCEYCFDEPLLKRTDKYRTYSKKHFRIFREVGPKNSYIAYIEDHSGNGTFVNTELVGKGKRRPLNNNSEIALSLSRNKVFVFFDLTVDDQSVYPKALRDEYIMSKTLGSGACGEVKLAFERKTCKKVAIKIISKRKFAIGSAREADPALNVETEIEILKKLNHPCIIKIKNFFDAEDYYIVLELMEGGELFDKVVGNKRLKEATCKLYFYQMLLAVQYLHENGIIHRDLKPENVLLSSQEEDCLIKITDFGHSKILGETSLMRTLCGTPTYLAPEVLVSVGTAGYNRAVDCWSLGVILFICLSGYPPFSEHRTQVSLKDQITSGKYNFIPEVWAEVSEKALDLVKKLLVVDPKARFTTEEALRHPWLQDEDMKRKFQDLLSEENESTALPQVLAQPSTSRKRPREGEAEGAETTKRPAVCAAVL

As to `COc1nc(C)ccc1-c1cc(Nc2cnc3ccn(C4CCNCC4)c3n2)n[nH]1` [Compound 1], the IC50 on Chk1 was below 1 nM.
`COc1nc(C)ccc1-c1cc(Nc2cnc3c(F)cn(C4CCNCC4)c3n2)n[nH]1` [Compound 2]: at Chk1, the IC50 worked out at 2 nM.
For the compound `COc1nc(C)ccc1-c1cc(Nc2cnc3ccn(CC4CNC4)c3n2)n[nH]1` [Compound 4], the IC50 is 3 nM on Chk1 and 333 nM on Chk2 (read-out: Chk2 inhibition IC50).
In the same order, the values of `COc1nc(C)ccc1-c1cc(Nc2cnc3ccn(C[C@H]4CCNC4)c3n2)n[nH]1` [Compound 5] are 3 nM and 375 nM.
Take `[2H]c1cn(C2CCNCC2)c2nc(Nc3cc(-c4ccc(C)nc4OC)[nH]n3)cnc12` [Compound 6]: the results for the IC50 on Chk1 and on Chk2 were below 1 nM and 64 nM, respectively.
In the case of `COc1ccc(F)cc1-c1cc(Nc2cnc3ccn(C4CCNCC4)c3n2)n[nH]1` [Compound 8], the results for the IC50 at Chk1 and at Chk2 (read-out: Chk2 inhibition IC50) were 1 nM and 188 nM, respectively.
Regarding `COc1nc(C(F)(F)F)ccc1-c1cc(Nc2cnc3ccn(C4CCNCC4)c3n2)n[nH]1` [Compound 9], the IC50 amounted to 2 nM on Chk1 and 1010 nM at Chk2 (read-out: Chk2 inhibition IC50).
As for `COc1ccccc1-c1cc(Nc2cnc3ccn(C4CCNCC4)c3n2)n[nH]1` [Compound 10], the IC50 came to 2 nM at Chk1 and 62 nM at Chk2 (read-out: Chk2 inhibition IC50).
For `Fc1cccc(OC(F)(F)F)c1-c1cc(Nc2cnc3ccn(C4CCNCC4)c3n2)n[nH]1` [Compound 11], the IC50 on Chk1 turned out to be 3 nM; on Chk2 (read-out: Chk2 inhibition IC50) it was 99 nM.
Consider `COc1cc(F)ccc1-c1cc(Nc2cnc3ccn(C4CCNCC4)c3n2)n[nH]1` [Compound 12], for which the IC50 at Chk1 was 1 nM; on Chk2 (read-out: Chk2 inhibition IC50), 32 nM.
In the same order, the values of `COc1cc(C)ccc1-c1cc(Nc2cnc3ccn(C4CCNCC4)c3n2)n[nH]1` [Compound 13] are 2 nM and 84 nM.
On the same counts, the results for `COc1cc(Cl)ccc1-c1cc(Nc2cnc3ccn(C4CCNCC4)c3n2)n[nH]1` [Compound 14] are 1 nM and 73 nM.
On to `COc1nc(C)ccc1-c1cc(Nc2cnc3ccn(C4CCN(C)CC4)c3n2)n[nH]1` [Compound 18], for which the bioavailability in data set [1] was determined as 33.2%. Further, the AUC(0-t) in data set [1] (setting [3]) is 3.63 µM·h. In data set [1] (po), this compound gave a Cmax of 1220 nM. For the same compound, in data set [1] (intravenous injection 1 mg/kg), the Vd is 1.9 L/kg, the clearance worked out at 35.3 mL/min/kg and the half-life is 54 min. For the same compound, the AUC(0-t) in data set [1] (setting [4]) was determined as 1.14 µM·h. Moreover, in data set [2], the “Tumor volume (D 21)” value is on record as 180 ± 16 mm^3, the “RTV (D 21)” value was 1.49 and the “TGI (%) (D 21)” value amounted to 92.34%. In data set [2] (listed as compound 18), the “Tumor volume (D 21)” value was 180 mm^3 and the “TGI (%) (D 21)” value came to 92.3%.
With `COc1nc(C)ccc1-c1cc(Nc2cnc3c(F)cn(C4CCN(C)CC4)c3n2)n[nH]1` [Compound 19], the bioavailability in data set [1] was found to be 39.1%. Further, the AUC(0-t) in data set [1] (setting [3]) came to 3.91 µM·h. This compound had a Cmax in data set [1] (po) of 1220 nM. Moreover, in data set [1] (intravenous injection 1 mg/kg), the Vd was found to be 2.4 L/kg, the clearance came out at 33.1 mL/min/kg and the half-life was 66 min. Moreover, the AUC(0-t) in data set [1] (setting [4]) is 1.15 µM·h. For the same compound, in data set [2], the “Tumor volume (D 21)” value is 131 mm^3 and 131 ± 12 mm^3; the “RTV (D 21)” value turned out to be 1.14; the “TGI (%) (D 21)” value is 98.8% and 98.76%.
In the case of `[2H]C([2H])([2H])Oc1nc(C)ccc1-c1cc(Nc2cnc3c(F)cn(C4CCN(C)CC4)c3n2)n[nH]1` [Compound 20], the IC50 at Chk1 was determined as 2 nM. Moreover, the IC50 against Chk2 came out at 282 nM. The bioavailability in data set [1] turned out to be 41.9%. In data set [1] (setting [3]), the AUC(0-t) came out at 5.13 µM·h. The same compound gave a Cmax in data set [1] (po) of 1260 nM. In data set [1] (intravenous injection 1 mg/kg), the Vd was 2.7 L/kg, the clearance worked out at 30.9 mL/min/kg and the half-life was 84 min. Besides, in data set [1] (setting [4]), the AUC(0-t) was found to be 1.21 µM·h.
For `[2H]C([2H])([2H])N1CCC(n2ccc3ncc(Nc4cc(-c5ccc(C)nc5OC)[nH]n4)nc32)CC1` [Compound 21], the IC50 on Chk1 is 1 nM; against Chk2, 362 nM.
Consider `[2H]C([2H])([2H])Oc1nc(C)ccc1-c1cc(Nc2cnc3ccn(C4CCN(C([2H])([2H])[2H])CC4)c3n2)n[nH]1` [Compound 22], for which the IC50 at Chk1 was determined as 1 nM; on Chk2 it was 386 nM.

For orientation: IC50 means the concentration that gives 50% inhibition. Broadly, the bioavailability is the share of a dose that reaches the circulation, judged against a reference dose that is usually intravenous. What is called Cmax is the maximum level reached in the sampled fluid or tissue. As usually defined, the Vd is the apparent volume that relates the amount in the body to the concentration in plasma or blood. A low value points to confinement near the circulation. By clearance is commonly meant a measure of how efficiently the substance is removed, as volume per time. A lower clearance goes with a low capacity for elimination.
